Results reported in patent US20240132431A1, “METHOD FOR ALKYLATING ACIDIC FUNCTIONAL GROUP” (Chugai Seiyaku Kabushiki Kaisha, priority 2021, published 2024).
Values belong to the molecule of their own block, whether it stands above or below them.

Molecular target: T1, Bcl-2 protein (Recombinant Human Bcl-2 Protein) (Homo sapiens, UniProt P10415)
T1 construct: purchased Novus NBP2-34889
Experiment: Binding evaluation of mixture library compounds to Bcl-2 using AS-MS (affinity selection mass spectrometry)
Details: for ASMS ratio (%) n = 1: replicate n = 1; for ASMS ratio (%) n = 1 / ASMS ratio (%) n = 2: ASMS Ratio(%)=(A−C)/B×100; for ASMS ratio (%) n = 2: replicate n = 2
How it was run: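 Pooled library of ~1200 compounds ([…] each, final) incubated with recombinant human Bcl-2 (20 μM final) in Tris-HCl pH 7.4, NaCl, Tween-20, DTT buffer, dark, 23° C., 1 h. Bound fraction recovered by SEC spin column, organic extraction, reversed-phase LC/MS. ASMS Ratio (%) = (A−C)/B×100 versus protein-free standard and SEC blank.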

[1] = AS-MS, mixture of 1200 compounds, Bcl-2
[2] = AS-MS on the mixture of 1200 library compounds

T1 sequence (P10415 whole entry): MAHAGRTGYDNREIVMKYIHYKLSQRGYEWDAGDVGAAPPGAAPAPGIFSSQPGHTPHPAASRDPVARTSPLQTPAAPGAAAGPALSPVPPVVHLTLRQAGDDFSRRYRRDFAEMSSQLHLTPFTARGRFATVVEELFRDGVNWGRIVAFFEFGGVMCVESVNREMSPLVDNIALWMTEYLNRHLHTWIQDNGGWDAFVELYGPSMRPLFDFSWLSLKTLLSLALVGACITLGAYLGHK

ASMS ratio (%) n = 1 (AS-MS, mixture library, Bcl-2): 1.6%
ASMS ratio (%) n = 2 (AS-MS, mixture library, Bcl-2): 0.3%
Molecule: CCOc1cncc(-c2ccccc2CCC(=O)N2CCN(c3ccc(C(=O)NS(=O)(=O)CC45CC6CC(CC(C6)C4)C5)cc3)CC2)c1 [B2A034-01, N-(1-Adamantylmethylsulfonyl)-4-[4-[3-[2-(5-ethoxypyridin-3-yl)phenyl]propanoyl]piperazin-1-yl]benzamide]

ASMS ratio (%) (n = 1): 0.0%
Molecule: CCOc1cccc(C#Cc2cc(C(=O)N3CCN(c4ccc(C(=O)NS(=O)(=O)C(C)(C)C)cc4)CC3)cc(C(F)(F)F)c2)c1 [B2L041-01, N-tert-Butylsulfonyl-4-[4-[3-[2-(3-ethoxyphenyl)ethynyl]-5-(trifluoromethyl)benzoyl]piperazin-1-yl]benzamide]

ASMS ratio (%) (n = 1): 0.0%
ASMS ratio (%) (n = 2): 19.5%
Molecule: CCOc1cccc(C#Cc2cncc(C(=O)N3CCN(c4ccc(C(=O)NS(=O)(=O)c5ccc(NCCSc6ccccc6)c(C(F)(F)F)c5)nn4)CC3)c2)c1 [B2R009-01, 6-[4-[5-[2-(3-Ethoxyphenyl)ethynyl]pyridine-3-carbonyl]piperazin-1-yl]-N-[4-(2-phenylsulfanylethylamino)-3-(trifluoromethyl)phenyl]sulfonylpyridazine-3-carboxamide]

Molecule: CCOc1cncc(-c2ccc(C(C)N3CCN(c4ccc(C(=O)N(CC)CC)cc4)CC3)cc2)c1 (stereo not shown) [B4J098-01, 4-[4-[1-[4-(5-Ethoxypyridin-3-yl)phenyl]ethyl]piperazin-1-yl]-N,N-diethylbenzamide]
ASMS ratio (%) n = 1 (AS-MS, mixture library, Bcl-2): −2.0%
ASMS ratio (%) n = 2 (AS-MS, mixture library, Bcl-2): −0.2%

ASMS ratio (%) n = 1 [1]: 1.2%
ASMS ratio (%) n = 2 [1]: −0.3%
Molecule: CCOc1cncc(-c2cc(CN3CCN(c4ccc(C(=O)NCC(F)(F)F)cc4)CC3)cc(C(F)(F)F)c2)c1 [B1K062-01, 4-[4-[[3-(5-Ethoxypyridin-3-yl)-5-(trifluoromethyl)phenyl]methyl]piperazin-1-yl]-N-(2,2,2-trifluoroethyl)benzamide]

ASMS ratio (%) n = 1 [1]: 4.3%
ASMS ratio (%) n = 2 [1]: 1.3%
Molecule: CCOc1cccc(-c2csc(C(=O)N3CCN(c4ccc(C(=O)NCC(F)(F)F)cc4)CC3)c2)c1 [B1K023-01, 4-[4-[4-(3-Ethoxyphenyl)thiophene-2-carbonyl]piperazin-1-yl]-N-(2,2,2-trifluoroethyl)benzamide]

ASMS ratio (%) n = 1 [2]: 9.1%
ASMS ratio (%) n = 2 [2]: −5.1%
Molecule: CCOc1cncc(C#Cc2cncc(C(=O)N3CCN(c4ccc(C(=O)N(C)CC56CC7CC(CC(C7)C5)C6)cc4)CC3)c2)c1 [B3A032-01, N-(1-Adamantylmethyl)-4-[4-[5-[2-(5-ethoxypyridin-3-yl)ethynyl]pyridine-3-carbonyl]piperazin-1-yl]-N-methylbenzamide]

ASMS ratio (%) n = 1 [1]: 6.3%
ASMS ratio (%) n = 2 [1]: −8.4%
Molecule: CCOc1cccc(-c2cc(C(=O)N3CCN(c4ccc(C(=O)NCC56CC7CC(CC(C7)C5)C6)cc4)CC3)cc(C(F)(F)F)c2)c1 [B1A039-01, N-(1-Adamantylmethyl)-4-[4-[3-(3-ethoxyphenyl)-5-(trifluoromethyl)benzoyl]piperazin-1-yl]benzamide]

ASMS ratio (%) n = 1 [2]: 0.0%
ASMS ratio (%) n = 2 [2]: 0.0%
Molecule: CCOc1cccc(C#Cc2cncc(C(=O)N3CCN(c4ccc(C(=O)N(CC)CC)nn4)CC3)c2)c1 [B4J009-01, 6-[4-[5-[2-(3-Ethoxyphenyl)ethynyl]pyridine-3-carbonyl]piperazin-1-yl]-N,N-diethylpyridazine-3-carboxamide]

ASMS ratio (%) n = 1 (AS-MS, mixture library, Bcl-2): 22.6%
ASMS ratio (%) n = 2 (AS-MS, mixture library, Bcl-2): 2.1%
Molecule: CCOc1cccc(-c2ccc(CN3CCN(c4ccc(C(=O)NS(=O)(=O)c5ccc(NCCSc6ccccc6)c([N+](=O)[O-])c5)cc4)CC3)cc2F)c1 [B2Q051-01, 4-[4-[[4-(3-Ethoxyphenyl)-3-fluorophenyl]methyl]piperazin-1-yl]-N-[3-nitro-4-(2-phenylsulfanylethylamino)phenyl]sulfonylbenzamide]

ASMS ratio (%) n = 1 (AS-MS, mixture library, Bcl-2): 0.0%
ASMS ratio (%) n = 2 (AS-MS, mixture library, Bcl-2): 0.0%
Molecule: CCOc1cncc(C#Cc2cc(C(=O)N3CCN(c4ccc(C(=O)NS(C)(=O)=O)nn4)CC3)cc(C(F)(F)F)c2)c1 [B2I020-01, 6-[4-[3-[2-(5-Ethoxypyridin-3-yl)ethynyl]-5-(trifluoromethyl)benzoyl]piperazin-1-yl]-N-methylsulfonylpyridazine-3-carboxamide]

ASMS ratio (%) (n = 1): 21.1%
ASMS ratio (%) (n = 2): −8.8%
Molecule: CCOc1cccc(-c2cc(CN3CCN(c4ccc(C(=O)NS(=O)(=O)c5ccc(NCCSc6ccccc6)c(C(F)(F)F)c5)nn4)CC3)cc(OCC)c2)c1 [B2R081-01, 6-[4-[[3-Ethoxy-5-(3-ethoxyphenyl)phenyl]methyl]piperazin-1-yl]-N-[4-(2-phenylsulfanylethylamino)-3-(trifluoromethyl)phenyl]sulfonylpyridazine-3-carboxamide]

ASMS ratio (%) (n = 1): 0.0%
ASMS ratio (%) (n = 2): 0.0%
Molecule: CCOc1cccc(C#Cc2cc(C(=O)N3CCN(c4ccc(C(=O)NS(C)(=O)=O)cc4)CC3)cc(C(F)(F)F)c2)c1 [B2I041-01, 4-[4-[3-[2-(3-Ethoxyphenyl)ethynyl]-5-(trifluoromethyl)benzoyl]piperazin-1-yl]-N-methylsulfonylbenzamide]

ASMS ratio (%) n = 1 [1]: 4.2%
ASMS ratio (%) n = 2 [1]: −6.2%
Molecule: CCOc1cncc(-c2ccc(CN3CCN(c4ccc(C(=O)NCC56CC7CC(CC(C7)C5)C6)cc4)CC3)cc2F)c1 [B1A052-01, N-(1-Adamantylmethyl)-4-[4-[[4-(5-ethoxypyridin-3-yl)-3-fluorophenyl]methyl]piperazin-1-yl]benzamide]

ASMS ratio (%) n = 1 [2]: 0.0%
ASMS ratio (%) n = 2 [2]: 0.0%
Molecule: CCOc1cncc(-c2ccc(CN3CCN(c4ccc(C(=O)N(C)CC56CC7CC(CC(C7)C5)C6)cc4)CC3)c(OC)c2)c1 [B3A054-01, N-(1-Adamantylmethyl)-4-[4-[[4-(5-ethoxypyridin-3-yl)-2-methoxyphenyl]methyl]piperazin-1-yl]-N-methylbenzamide]

ASMS ratio (%) n = 1 (AS-MS, mixture library, Bcl-2): 0.0%
ASMS ratio (%) n = 2 (AS-MS, mixture library, Bcl-2): 0.0%
Molecule: CCOc1cncc(C#Cc2cncc(C(=O)N3CCN(c4ccc(C(=O)NS(=O)(=O)CC56CC7CC(CC(C7)C5)C6)cc4)CC3)c2)c1 [B2A032-01, N-(1-Adamantylmethylsulfonyl)-4-[4-[5-[2-(5-ethoxypyridin-3-yl)ethynyl]pyridine-3-carbonyl]piperazin-1-yl]benzamide]

Molecule: 6-[4-[3-(5-Ethoxypyridin-3-yl)-5-(trifluoromethyl)benzoyl]piperazin-1-yl]-N-propylpyridazine-3-carboxamide [B1M007-01]
ASMS ratio (%) n = 1 [1]: 0.3%
ASMS ratio (%) n = 2 [1]: 0.3%

ASMS ratio (%) n = 1 [2]: 3.9%
ASMS ratio (%) n = 2 [2]: −18.6%
Molecule: CCOc1cccc(-c2cc(CN3CCN(c4ccc(C(=O)N(C)CC56CC7CC(CC(C7)C5)C6)nn4)CC3)cc(OC(C)C)c2)c1 [B3A083-01, N-(1-Adamantylmethyl)-6-[4-[[3-(3-ethoxyphenyl)-5-propan-2-yloxyphenyl]methyl]piperazin-1-yl]-N-methylpyridazine-3-carboxamide]

ASMS ratio (%) n = 1 [1]: 12.1%
ASMS ratio (%) n = 2 [1]: −4.6%
Molecule: CCOc1cncc(-c2cc(C(=O)N3CCN(c4ccc(C(=O)NCC56CC7CC(CC(C7)C5)C6)nn4)CC3)cc(C(C)(C)C)c2)c1 [B1A016-01, N-(1-Adamantylmethyl)-6-[4-[3-tert-butyl-5-(5-ethoxypyridin-3-yl)benzoyl]piperazin-1-yl]pyridazine-3-carboxamide]

ASMS ratio (%) n = 1 [1]: 8.0%
ASMS ratio (%) n = 2 [1]: 7.7%
Molecule: CCOc1cncc(-c2cnn(-c3cc(C(=O)N4CCN(c5ccc(C(=O)NCC67CC8CC(CC(C8)C6)C7)nn5)CC4)cc(C(F)(F)F)c3)c2)c1 [B1A022-01, N-(1-Adamantylmethyl)-6-[4-[3-[4-(5-ethoxypyridin-3-yl)pyrazol-1-yl]-5-(trifluoromethyl)benzoyl]piperazin-1-yl]pyridazine-3-carboxamide]

ASMS ratio (%) n = 1 [2]: 6.3%
ASMS ratio (%) n = 2 [2]: −1.4%
Molecule: CCOc1cncc(-c2ccc(CN3CCN(c4ccc(C(=O)Nc5ccc(OC)cc5)nn4)CC3)c3ccccc23)c1 [B1O092-01, 6-[4-[[4-(5-Ethoxypyridin-3-yl)naphthalen-1-yl]methyl]piperazin-1-yl]-N-(4-methoxyphenyl)pyridazine-3-carboxamide]

ASMS ratio (%) n = 1 [2]: 12.5%
ASMS ratio (%) n = 2 [2]: −8.4%
Molecule: CCOc1cccc(-c2cnn(-c3cc(C(=O)N4CCN(c5ccc(C(=O)N(C)CC67CC8CC(CC(C8)C6)C7)nn5)CC4)cc(C(F)(F)F)c3)c2)c1 [B3A021-01, N-(1-Adamantylmethyl)-6-[4-[3-[4-(3-ethoxyphenyl)pyrazol-1-yl]-5-(trifluoromethyl)benzoyl]piperazin-1-yl]-N-methylpyridazine-3-carboxamide]

ASMS ratio (%) (n = 1): 0.0%
ASMS ratio (%) (n = 2): 0.0%
Molecule: CCOc1cccc(-c2cc(C(=O)N3CCN(c4ccc(C(=O)NS(=O)(=O)C(C)(C)C)nn4)CC3)cc(C(C)(C)C)c2)c1 [B2L015-01, 6-[4-[3-tert-Butyl-5-(3-ethoxyphenyl)benzoyl]piperazin-1-yl]-N-tert-butylsulfonylpyridazine-3-carboxamide]

ASMS ratio (%) n = 1 [1]: 1.3%
ASMS ratio (%) n = 2 [1]: 0.1%
Molecule: CCOc1cncc(-c2cc(CN3CCN(c4ccc(C(=O)NCC(F)(F)F)cc4)CC3)cc(OC(C)C)c2)c1 [B1K058-01, 4-[4-[[3-(5-Ethoxypyridin-3-yl)-5-propan-2-yloxyphenyl]methyl]piperazin-1-yl]-N-(2,2,2-trifluoroethyl)benzamide]

Molecule: 4-[4-[[3-(3-Ethoxyphenyl)-5-(trifluoromethoxy)phenyl]methyl]piperazin-1-yl]-N-propylbenzamide [B1M032-01]
ASMS ratio (%) n = 1 [1]: 0.3%
ASMS ratio (%) n = 2 [1]: 0.3%
